In one assay the target is T1, Progesterone receptor (Homo sapiens, UniProt P06401).
T1 sequence (P06401 whole entry): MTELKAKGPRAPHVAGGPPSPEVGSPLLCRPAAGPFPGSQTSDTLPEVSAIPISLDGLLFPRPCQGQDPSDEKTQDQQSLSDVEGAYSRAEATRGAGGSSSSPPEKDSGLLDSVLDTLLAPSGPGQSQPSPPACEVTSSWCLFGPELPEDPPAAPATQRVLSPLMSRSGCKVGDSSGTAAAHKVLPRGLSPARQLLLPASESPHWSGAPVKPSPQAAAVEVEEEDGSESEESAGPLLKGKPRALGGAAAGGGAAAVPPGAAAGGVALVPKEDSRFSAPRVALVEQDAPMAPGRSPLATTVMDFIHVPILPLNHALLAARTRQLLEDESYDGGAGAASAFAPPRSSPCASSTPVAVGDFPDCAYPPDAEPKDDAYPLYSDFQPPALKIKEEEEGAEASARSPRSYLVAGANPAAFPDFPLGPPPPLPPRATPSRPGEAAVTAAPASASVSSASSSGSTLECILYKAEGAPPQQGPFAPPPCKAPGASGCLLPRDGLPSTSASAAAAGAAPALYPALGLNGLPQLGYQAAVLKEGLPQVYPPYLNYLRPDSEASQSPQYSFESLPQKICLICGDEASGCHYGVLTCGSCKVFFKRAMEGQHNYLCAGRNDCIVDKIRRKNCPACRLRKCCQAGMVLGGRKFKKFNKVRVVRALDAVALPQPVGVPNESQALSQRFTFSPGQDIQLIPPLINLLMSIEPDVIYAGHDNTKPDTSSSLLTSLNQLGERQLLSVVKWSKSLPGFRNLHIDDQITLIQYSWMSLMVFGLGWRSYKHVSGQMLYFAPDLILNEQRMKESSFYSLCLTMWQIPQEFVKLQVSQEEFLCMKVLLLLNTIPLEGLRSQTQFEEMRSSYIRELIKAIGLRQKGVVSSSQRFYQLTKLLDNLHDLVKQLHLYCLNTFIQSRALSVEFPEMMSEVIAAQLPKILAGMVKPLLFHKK
Description: Effective concentration for human progesterone in T47D human breast cancer cell. The format is cell-based, Cancer cell lines.

In another assay the target is T2, Glucocorticoid receptor (Homo sapiens, UniProt P04150).
T2 sequence (P04150 whole entry): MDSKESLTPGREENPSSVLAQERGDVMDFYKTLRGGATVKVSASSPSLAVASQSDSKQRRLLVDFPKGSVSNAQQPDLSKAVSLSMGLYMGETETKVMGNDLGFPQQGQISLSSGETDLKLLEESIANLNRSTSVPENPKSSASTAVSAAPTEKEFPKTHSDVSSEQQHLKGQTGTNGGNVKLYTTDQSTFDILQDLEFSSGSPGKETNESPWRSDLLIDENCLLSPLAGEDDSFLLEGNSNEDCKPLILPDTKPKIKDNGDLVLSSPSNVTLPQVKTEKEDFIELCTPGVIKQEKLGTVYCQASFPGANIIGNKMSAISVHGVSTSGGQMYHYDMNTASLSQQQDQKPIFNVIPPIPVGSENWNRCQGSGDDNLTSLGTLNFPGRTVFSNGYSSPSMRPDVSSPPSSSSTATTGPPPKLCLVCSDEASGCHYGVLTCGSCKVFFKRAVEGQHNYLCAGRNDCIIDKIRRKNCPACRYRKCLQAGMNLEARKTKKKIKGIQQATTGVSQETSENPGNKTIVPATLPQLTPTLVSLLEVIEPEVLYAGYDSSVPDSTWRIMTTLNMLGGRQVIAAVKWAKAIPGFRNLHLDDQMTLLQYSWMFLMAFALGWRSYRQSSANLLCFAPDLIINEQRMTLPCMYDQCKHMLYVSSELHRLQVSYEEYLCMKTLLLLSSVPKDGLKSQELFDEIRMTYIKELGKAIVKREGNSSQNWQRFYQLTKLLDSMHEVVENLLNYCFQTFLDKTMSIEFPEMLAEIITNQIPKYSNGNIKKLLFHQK
Description: Inhibition of antagonist activity towards glucocorticoid receptor; not active. The format is functional.

What is called EC50 is the concentration that produces a half-maximal response. A higher EC50 goes with a less potent agent.

On Progesterone receptor, `CC1=CC(C)(C)Nc2ccc3c(c21)COc1c(F)cc(F)cc1-3` yielded an EC50 of 0.244 µM.

For the compound `CC1CC(C)(C)Nc2ccc3c(c21)COc1c(F)cc(F)cc1-3` (configuration not stated), the IC50 entry against Glucocorticoid receptor was “Not Active”.

(Values after ChEMBL document CHEMBL1144945, “Development of progesterone receptor antagonists from 1,2-dihydrochromeno[3,4-f]quinoline agonist pharmacophore” (Bioorg Med Chem Lett, 2003).)
